Patent US7618816B2, “Metal-binding therapeutic peptides” (Ontherix, Inc., priority 2005, dated 2009)
Where no end group is shown, it is not given here.

What was measured:
Test in all cases: Uptake of SA-HRP::MBD peptide complexes
Assay type in all cases: cell-based, human
HOP 18 = system: HOP 18
Protocol: (§1) HEK293 kidney cell line and 54 tumor cell lines obtained from the National Cancer Institute and passaged in RPMI1640 cell culture medium supplemented with 10% fetal bovine serum and 10 uM FeCl2. Uptake of streptavidin-horseradish peroxidase (SA-HRP) conjugate and of various SA-HRP::MBD peptide complexes was determined as described (Singh et al. J Biol Chem. 279 (1):477-87 [2004]) using biotinylated MBD9 ([…]) (SEQ ID NO: 10) and MBD21 ([…]) (SEQ ID NO: 4) peptides and SA-HRP. Nuclear and cytoplasmic localization of these proteins was also determined in each case. […] In order to establish the underlying molecular mechanism for this variability, we cross-linked MBD21 peptide to the following cell surface markers at 4 degrees Celsius as previously described (Singh et al. J Biol Chem. 279 (1):477-87 [2004]): transferrin receptor 1, caveolin 1, PCNA, integrins alpha v, 2, 5 and 6, integrins beta 1, 3 and 5. […] Based on the strength of these correlations, it was possible to derive crude predictive formulae for MBD-mediated uptake based on the rate of cross-linking to surface markers. Such predictive formulas could form the basis for a diagnostic procedure to select appropriate targets for MBD-based therapies.

DU-145 = system: DU-145
Protocol: as §1

NCI-H522 = system: NCI-H522
Protocol: as §1

A2780 = system: A2780
Protocol: as §1

KM12 = system: KM12
Protocol: as §1

NCI-H23 = system: NCI-H23
Protocol: as §1

HOP 62 = system: HOP 62
Protocol: as §1

BT-549 = system: BT-549
Protocol: as §1

A549 = system: A549
Protocol: as §1

SHP-77 = system: SHP-77
Protocol: as §1

Lewis Lung = system: Lewis Lung
Protocol: as §1

COLO 205 = system: COLO 205
Protocol: as §1

IGR-OV1 = system: IGR-OV1
Protocol: as §1

A704 = system: A704
Protocol: as §1

HOP 92 = system: HOP 92
Protocol: as §1

NCI-H460 = system: NCI-H460
Protocol: as §1

SN12C = system: SN12C
Protocol: as §1

CCRF-CEM = system: CCRF-CEM
Protocol: as §1

OVCAR-3 = system: OVCAR-3
Protocol: as §1

RPMI 8226 = system: RPMI 8226
Protocol: as §1

HT-29 = system: HT-29
Protocol: as §1

786-O = system: 786-O
Protocol: as §1

PC-3 = system: PC-3
Protocol: as §1

WIDR = system: WIDR
Protocol: as §1

HS 913T = system: HS 913T
Protocol: as §1

OVCAR-5 = system: OVCAR-5
Protocol: as §1

HCT-15 = system: HCT-15
Protocol: as §1

HCC 2998 = system: HCC 2998
Protocol: as §1

UO-31 = system: UO-31
Protocol: as §1

SW-620 = system: SW-620
Protocol: as §1

OVCAR-8 = system: OVCAR-8
Protocol: as §1

EKVX = system: EKVX
Protocol: as §1

## KKGFYKKKQCRPSKGRKRGFCWAVDKYG (cysteine pairing not given here; also: biotinylated (position not given here), complexed with SA-HRP) [MBD21]
HOP 18; HOP 18, cytoplasmic
  SA-HRP uptake, Cyt.: 10.3 ng
HOP 18; HOP 18, nuclear
  SA-HRP uptake, Nuc.: 3.1 ng
DU-145; DU-145, cytoplasmic
  SA-HRP uptake, Cyt.: 25.7 ng
DU-145; DU-145, nuclear
  SA-HRP uptake, Nuc.: 3.3 ng
NCI-H522; NCI-H522, cytoplasmic
  SA-HRP uptake, Cyt.: 5.1 ng
NCI-H522; NCI-H522, nuclear
  SA-HRP uptake, Nuc.: 1.7 ng
A2780; A2780, cytoplasmic
  SA-HRP uptake, Cyt.: 7.5 ng
A2780; A2780, nuclear
  SA-HRP uptake, Nuc.: 1.0 ng
KM12; KM12, cytoplasmic
  SA-HRP uptake, Cyt.: 2.1 ng
KM12; KM12, nuclear
  SA-HRP uptake, Nuc.: 0.7 ng
NCI-H23; NCI-H23, cytoplasmic
  SA-HRP uptake, Cyt.: 8.0 ng
NCI-H23; NCI-H23, nuclear
  SA-HRP uptake, Nuc.: 8.7 ng
HOP 62; HOP 62, cytoplasmic
  SA-HRP uptake, Cyt.: 4.1 ng
HOP 62; HOP 62, nuclear
  SA-HRP uptake, Nuc.: 0.2 ng
BT-549; BT-549, cytoplasmic
  SA-HRP uptake, Cyt.: 4.8 ng
BT-549; BT-549, nuclear
  SA-HRP uptake, Nuc.: 3.3 ng
A549; A549, cytoplasmic
  SA-HRP uptake, Cyt.: 4.4 ng
A549; A549, nuclear
  SA-HRP uptake, Nuc.: 1.3 ng
SHP-77; SHP-77, cytoplasmic
  SA-HRP uptake, Cyt.: 6.6 ng
SHP-77; SHP-77, nuclear
  SA-HRP uptake, Nuc.: 2.7 ng
Lewis Lung; cytoplasmic
  SA-HRP uptake, Cyt.: 6.4 ng
Lewis Lung; nuclear
  SA-HRP uptake, Nuc.: 3.4 ng
COLO 205; COLO 205, cytoplasmic
  SA-HRP uptake, Cyt.: 2.1 ng
COLO 205; COLO 205, nuclear
  SA-HRP uptake, Nuc.: 0.9 ng
IGR-OV1; IGR-OV1, cytoplasmic
  SA-HRP uptake, Cyt.: 1.9 ng
IGR-OV1; IGR-OV1, nuclear
  SA-HRP uptake, Nuc.: 1.0 ng
A704; A704, cytoplasmic
  SA-HRP uptake, Cyt.: 4.5 ng
A704; A704, nuclear
  SA-HRP uptake, Nuc.: 1.2 ng
HOP 92; HOP 92, cytoplasmic
  SA-HRP uptake, Cyt.: 1.5 ng
HOP 92; HOP 92, nuclear
  SA-HRP uptake, Nuc.: 1.6 ng
NCI-H460; NCI-H460, cytoplasmic
  SA-HRP uptake, Cyt.: 11.6 ng
NCI-H460; NCI-H460, nuclear
  SA-HRP uptake, Nuc.: 5.8 ng
SN12C; cytoplasmic
  SA-HRP uptake, Cyt.: 6.7 ng
SN12C; nuclear
  SA-HRP uptake, Nuc.: 6.4 ng
CCRF-CEM; cytoplasmic
  SA-HRP uptake, Cyt.: 41.3 ng
CCRF-CEM; nuclear
  SA-HRP uptake, Nuc.: 2.0 ng
OVCAR-3; OVCAR-3, cytoplasmic
  SA-HRP uptake, Cyt.: <0.04 ng
OVCAR-3; OVCAR-3, nuclear
  SA-HRP uptake, Nuc.: 3.2 ng
RPMI 8226; RPMI 8226, cytoplasmic
  SA-HRP uptake, Cyt.: 3.6 ng
RPMI 8226; RPMI 8226, nuclear
  SA-HRP uptake, Nuc.: 0.0 ng
HT-29; HT-29, cytoplasmic
  SA-HRP uptake, Cyt.: 3.5 ng
HT-29; HT-29, nuclear
  SA-HRP uptake, Nuc.: 9.5 ng
786-O; cytoplasmic
  SA-HRP uptake, Cyt.: 1.8 ng
786-O; nuclear
  SA-HRP uptake, Nuc.: 4.8 ng
PC-3; PC-3, cytoplasmic
  SA-HRP uptake, Cyt.: 44.2 ng
PC-3; PC-3, nuclear
  SA-HRP uptake, Nuc.: 13.2 ng
WIDR; cytoplasmic
  SA-HRP uptake, Cyt.: 2.8 ng
WIDR; nuclear
  SA-HRP uptake, Nuc.: 1.0 ng
HS 913T; cytoplasmic
  SA-HRP uptake, Cyt.: 2.1 ng
HS 913T; nuclear
  SA-HRP uptake, Nuc.: 1.8 ng
OVCAR-5; OVCAR-5, cytoplasmic
  SA-HRP uptake, Cyt.: 1.3 ng
OVCAR-5; OVCAR-5, nuclear
  SA-HRP uptake, Nuc.: 1.5 ng
HCT-15; HCT-15, cytoplasmic
  SA-HRP uptake, Cyt.: 2.7 ng
HCT-15; HCT-15, nuclear
  SA-HRP uptake, Nuc.: 0.7 ng
HCC 2998; HCC 2998, cytoplasmic
  SA-HRP uptake, Cyt.: 2.1 ng
HCC 2998; HCC 2998, nuclear
  SA-HRP uptake, Nuc.: 2.4 ng
UO-31; UO-31, cytoplasmic
  SA-HRP uptake, Cyt.: 1.3 ng
UO-31; UO-31, nuclear
  SA-HRP uptake, Nuc.: 3.3 ng
SW-620; SW-620, cytoplasmic
  SA-HRP uptake, Cyt.: 6.3 ng
SW-620; SW-620, nuclear
  SA-HRP uptake, Nuc.: 2.3 ng
OVCAR-8; OVCAR-8, cytoplasmic
  SA-HRP uptake, Cyt.: 6.1 ng
OVCAR-8; OVCAR-8, nuclear
  SA-HRP uptake, Nuc.: 13.1 ng
EKVX; cytoplasmic
  SA-HRP uptake, Cyt.: 7.7 ng
EKVX; nuclear
  SA-HRP uptake, Nuc.: 7.3 ng
